Test results: paper PMC9042253 (RSC Advances, 2021)

Experiments:
[1] = target: T1, CD38 cyclase (Homo sapiens, UniProt P28907); assay: CD38 cyclase activity, fluorometric assay with NGD+ as substrate; format: biochemical; conditions: for remaining activity at 50 µM: read-out: % cyclase activity remaining (50 μM)
T1 sequence (P28907 1-300): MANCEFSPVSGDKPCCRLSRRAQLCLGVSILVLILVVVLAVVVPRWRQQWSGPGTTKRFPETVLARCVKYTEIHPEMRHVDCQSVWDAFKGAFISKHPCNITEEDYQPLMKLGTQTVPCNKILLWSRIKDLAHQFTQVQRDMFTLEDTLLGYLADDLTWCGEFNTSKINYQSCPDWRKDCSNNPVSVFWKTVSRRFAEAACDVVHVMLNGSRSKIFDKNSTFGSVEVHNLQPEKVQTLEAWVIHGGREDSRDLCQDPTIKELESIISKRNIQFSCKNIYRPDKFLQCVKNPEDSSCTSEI

[2] = tested on: PBMCs; assay: Cytokine analysis; format: cell-based; conditions: 1.0 μM, 48 hours, activated PBMCs from 3 donors
[3] = target: T2, CD38 hydrolase (Homo sapiens, UniProt P28907); assay: CD38 hydrolase activity, fluorometric assay with ε-NAD+ as substrate; format: biochemical; conditions: hydrolase versus cyclase screen
T2 sequence (P28907 1-300): T1 sequence (P28907 1-300)

SMILES	IC50 [1] [µM]	remaining activity at 50 µM [1] [%]	increase in IFNγ (in words) [2]	selectivity between hydrolase and cyclase activity (in words) [3]
O=C1NC(=S)S/C1=C\c1ccc2ncccc2c1 [Compound 25]	56	68.3 ± 18.2		
O=C1NC(=S)S/C1=C\c1ccc2c(c1)OCCO2 [Compound 28]	> 100	93.9 ± 6.9		
O=C1NC(=S)S/C1=C\c1ccc(OC(F)(F)F)cc1 [Compound 22]	4.81	21.7 ± 8.1		
COc1ccc(-c2ccc(/C=C3\SC(=S)N(C)C3=O)cc2)cc1 [Compound 24]	> 100	90.1 ± 3.9		
CS(=O)(=O)c1ccc(/C=C2\SC(=S)NC2=O)cc1 [Compound 21]	11.5	22.1 ± 4		
Cc1ccc(-c2cccc(/C=C3\SC(=S)NC3=O)c2)cc1 [Compound 29]	> 100	98.6 ± 4.7		
O=C1NC(=S)S/C1=C\c1ccc(Oc2ccccc2)cc1 [Compound 27]	> 100	88.2 ± 0.6		
O=C1NC(=S)S/C1=C\c1ccc2oc3ccccc3c2c1 [Compound 26]	> 100	77.3 ± 22.4		
O=C1NC(=S)S/C1=C\c1ccc(C(F)(F)F)cc1 [Compound 23]	4.65	9.3 ± 0.8	more effective than 78c	
O=c1cc(-c2ccc(O)cc2)oc2cc(O)cc(O)c12 [apigenin]				neither compound showed significant selectivity

Now from value to compound, other results behind:

IC50 [1] [µM]	remaining activity at 50 µM [1] [%]	SMILES	increase in IFNγ (in words) [2]	selectivity between hydrolase and cyclase activity (in words) [3]
> 100	84.5 ± 2.2	Cc1ccc(-c2ccc(/C=C3\SC(=O)NC3=O)cc2)cc1 [Compound 37]		
> 100	90 ± 5.4	COc1ccc2cc(/C=C3\SC(=S)NC3=O)ccc2c1 [Compound 36]		
10	39.4 ± 4.9	Cc1ccc(-c2ccc(/C=C3\SC(=S)NC3=O)cc2)cc1 [Compound 33]		
68.6	64.1 ± 7.2	COc1cc(/C=C2\SC(=S)NC2=O)cc(OC)c1OC [Compound 39]		
3.15	64.5 ± 4.2	O=C1NC(=S)S/C1=C\c1ccc(-c2ccc(C(F)(F)F)cc2)cc1 [Compound 32]	more effective than 78c	
	22.1 ± 14.3	O=C1NC(=S)S/C1=C\c1ccc(-c2ccccc2)cc1 [Compound 40]		
> 100	87.1 ± 3.4	O=C1NC(=S)S/C1=C\c1ccccc1OC(F)(F)F [Compound 42]		
> 100	84.5 ± 8.5	O=C1NC(=S)S/C1=C\c1ccc(OCc2ccccc2)cc1 [Compound 38]		
48.2	29 ± 18.8	Cc1ccc(-c2ccc(/C=C3\SC(=S)N(C)C3=O)cc2)cc1 [Compound 43]		
56	66.3 ± 23.4	O=C1NC(=S)S/C1=C\c1ccc(-c2ccccn2)cc1 [Compound 34]		
> 100	81.7 ± 9	O=C1NC(=S)S/C1=C\c1ccc(-c2cccc(C(F)(F)F)c2)o1 [Compound 35]		
53.8	55.7 ± 2.3	COc1ccc(-c2ccc(/C=C3\SC(=S)NC3=O)cc2)cc1 [Compound 45]		
> 100	96.3 ± 6.8	O=C1NC(=S)S/C1=C\c1ccc2c(c1)-c1ccccc1C2 [Compound 31]		
20.9	70.3 ± 40.7	O=C1NC(=S)S/C1=C\c1cc2cc3c(cc2nc1Cl)OCO3 [Compound 30]		
> 100	81.6 ± 2.4	O=C1NC(=S)S/C1=C\c1ccccc1C(F)(F)F [Compound 41]		
